Here are results for one compound from patent US6054137A, “Promoting epidermal renewal with phloroglucinol” (Societe L'Oreal S.A., priority 1997, dated 2000).

Molecules are shown by their SMILES.

The test system of the experiment is normal human keratinocytes. In words: Proliferation of normal human keratinocytes cultured as a monolayer (BrdU test; score versus epinephrine). In kind it is cell-based. The following applies: at 10^-5 M; keratinocyte monolayer; 72 h. On the procedure:
Study of the effect of 1,3,5-trimethoxybenzene on the proliferation of normal human keratinocytes cultured as a monolayer:
The products are tested on 2nd passage normal human keratinocytes cultured in KGM medium (serum-free defined medium sold by the company Clonetics). The range of concentrations is between 10^-4 M and 10^-7 M. The products are tested twice on 2 different plates.
250 ng/ml epinephrine is employed as positive control of the proliferation.
The products are dissolved in dimethyl sulphoxide (DMSO). A 1×10^-2 M mother solution is prepared in DMSO. The following dilutions are carried out in KGM.
The keratinocytes are seeded at 6000 cells/cm^2. After culturing for 24 h, the product is applied to the cells for 72 h. The medium is replaced after treatment for 48 h.
BrdU kit (Boehringer Mannheim).
On the second day of treatment, a thymidine analogue (BrdU) is added to the culture medium overnight. This analogue makes it possible to label the cells during DNA synthesis. On the third day of treatment, the cells which have incorporated BrdU are identified with an anti-BrdU antibody.
For each product, the score (see table) is attributed as a function of the result obtained with respect to epinephrine (positive control for the proliferation).

Consider `COc1cc(OC)cc(OC)c1` [1,3,5-Trimethoxybenzene, 1,3,5-trimethoxybenzene], for which the Proliferative effect entry is recorded as “induces proliferation of the keratinocytes”.
